Laboratory results published in article PMC7889895, “Crystal structure of a photosynthetic LH1-RC in complex with its electron donor HiPIP” (Nature Communications, 2021).

Molecular target: T1, HiPIP (Thermochromatium tepidum, UniProt P80176)
T1 construct: gene hip; native, purified from cells by DEAE chromatography in the reduced state; co-crystallised with native LH1-RC; with Photosynthetic reaction center cytochrome c subunit
Test: X-ray crystal structure of HiPIP:LH1-RC co-complex, […] Å
Assay type: binding
Settings: pH 5; 4Fe-4S cluster ligated by Cys; HiPIP purified in reduced state; bound to LH1-RC

T1 sequence (P80176 whole entry, other chains not shown): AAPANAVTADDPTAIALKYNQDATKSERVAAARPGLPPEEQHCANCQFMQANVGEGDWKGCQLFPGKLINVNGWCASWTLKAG

[S]12[Fe]3[S]4[Fe]1[S]1[Fe]2[S]3[Fe]41 [4Fe-4S cluster]
X-ray crystal structure of HiPIP:LH1-RC co-complex, 2.9 Å: Fe atoms in both hemes and the 4Fe-4S cluster were clearly resolved
